Structures can show the parent of a compound that is named as a salt.
What was measured:
[1] = test system: Smn protein in SMA patient fibroblast cells (GM03813); test: Smn protein assay in cultured cells (SMN HTRF); type: cell-based, human; settings: SMA patient fibroblast cells, 48 hours; for maximum fold (Fold) increase of Smn protein: 7-point concentration data, fold relative to vehicle control; for EC1.5x for Smn protein expression: 7-point concentration curve, SMN HTRF, concentration producing 1.5 times Smn protein vs DMSO vehicle control
In short: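 Fibroblasts, SMA patient; 5,000 cells/well; 7-pt curve, 3.16-fold serial dilution; 48 h, 37 °C, 5% CO2; RIPA lysis 1 h RT; anti-SMN d2 + kryptate overnight RT; HTRF 665/620 nm; fold vs DMSO; EC1.5×, max fold.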

[2] = test system: SMN2 minigene mRNA (SMN2-A minigene) in HEK293H cells; test: SMN2 minigene mRNA splicing RT-qPCR assay in cultured cells; type: cell-based, human; settings: Homo sapiens, HEK293-H; concentration increasing full length SMN2 mRNA 1.5-fold relative to vehicle-treated cells; HEK293H cells with SMN2-A minigene, 24 hours, 7-point concentration data; read-out: EC1.5x for production of full length SMN2 mRNA
In short: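 Stable SMN2-A minigene HEK293H; cpd 7-pt 3.16-fold series, 200× in DMSO, 24 h, 37 °C, n=2. Lysates → multiplex RT-qPCR (minigene FL + GAPDH), efficiency-corrected ΔΔCt vs vehicle. EC1.5× = 1.5-fold FL mRNA gain.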

Row | Structure (SMILES) | melting point | maximum fold (Fold) increase of Smn protein [1] | EC (1.5-fold increase) [2] | EC1.5x for Smn protein expression [1]
1 | COc1ccc(-c2cc(=O)n3cc(N4CCC(N(C)C)CC4)ccc3c2)cc1F (as salt: acetate) [Compound 203, 7-[4-(dimethylamino)piperidin-1-yl]-2-(3-fluoro-4-methoxyphenyl)-4H-quinolizin-4-one] | 188 to 192 °C |  |  | 
2 | O=c1cc(-c2cc(F)c(O)c(F)c2)nc2ccc(N3CCNCC3)cn12 (as salt: hydrochloride) [Compound 71, 2-(3,5-difluoro-4-hydroxyphenyl)-7-(piperazin-1-yl)-4H-pyrido[1,2-a]pyrimidin-4-one] | 290 °C (dec.) |  |  | 
3 | COc1ccc(-c2cc(=O)n3cc(N4CCN(C)CC4)ccc3n2)cc1 [Compound 2, 2-(4-methoxyphenyl)-7-(4-methylpiperazin-1-yl)-4H-pyrido[1,2-a]pyrimidin-4-one] | 178 to 182 °C | ** (a fold increase between >1.2 and ≤1.35 is indicated by two stars (**)) | 1 to 3 µM | 
4 | COc1ccc(-c2cc(=O)n3cc(N4CCN[C@H](C)C4)ccc3n2)cc1 [Compound 3, 2-(4-methoxyphenyl)-7-[(3R)-3-methylpiperazin-1-yl]-4H-pyrido[1,2-a]pyrimidin-4-one] | 152 to 154 °C | *** (a fold increase between >1.35 and ≤1.5 is indicated by three stars (***)) | 0.3 to 1 µM | ** (an EC1.5× between >1 μM and ≤3 μM is indicated by two stars (**))
5 | COc1ccc(-c2cc(=O)n3cc(N4C[C@@H](C)N[C@@H](C)C4)ccc3n2)cc1 [Compound 4, 7-[(3R,5S)-3,5-dimethylpiperazin-1-yl]-2-(4-methoxyphenyl)-4H-pyrido[1,2-a]pyrimidin-4-one] | 185 to 187 °C | * (A maximum fold increase of ≤1.2 is indicated by one star (*)) | 1 to 3 µM | 
6 | COc1ccc(-c2cc(=O)n3cc(N4CCCNCC4)ccc3n2)cc1 [Compound 5, 7-(1,4-diazepan-1-yl)-2-(4-methoxyphenyl)-4H-pyrido[1,2-a]pyrimidin-4-one] | 149 to 152 °C | * (A maximum fold increase of ≤1.2 is indicated by one star (*)) | 3 to 30 µM | 
7 | COc1ccc(-c2cc(=O)n3cc(N4CCNC(C)(C)C4)ccc3n2)cc1OC [Compound 7, 2-(3,4-dimethoxyphenyl)-7-(3,3-dimethylpiperazin-1-yl)-4H-pyrido[1,2-a]pyrimidin-4-one] | 138 to 140 °C | *** (a fold increase between >1.35 and ≤1.5 is indicated by three stars (***)) | 0.3 to 1 µM | 
8 | COc1ccc(-c2cc(=O)n3cc(N4CCN[C@H](C)C4)ccc3n2)cc1OC [Compound 8, 2-(3,4-dimethoxyphenyl)-7-[(3R)-3-methylpiperazin-1-yl]-4H-pyrido[1,2-a]pyrimidin-4-one] | 181 to 184 °C | **** (a fold increase between >1.5 and ≤1.65 is indicated by four stars (****)) | 0.1 to 0.3 µM | ** (an EC1.5× between >1 μM and ≤3 μM is indicated by two stars (**))
9 | CCN1CCN(c2ccc3nc(-c4ccc(OC)c(OC)c4)cc(=O)n3c2)CC1 [Compound 9, 2-(3,4-dimethoxyphenyl)-7-(4-ethylpiperazin-1-yl)-4H-pyrido[1,2-a]pyrimidin-4-one] | 159 to 162 °C | *** (a fold increase between >1.35 and ≤1.5 is indicated by three stars (***)) | 1 to 3 µM | 
10 | CCc1nc(C)cn2nc(-c3cc(=O)n4cc(N(C)CCN(C)C)ccc4n3)cc12 [Compound 825, 7-{[2-(dimethylamino)ethyl](methyl)amino}-2-(4-ethyl-6-methylpyrazolo[1,5-a]pyrazin-2-yl)-4H-pyrido[1,2-a]pyrimidin-4-one] |  | ***** (a fold increase >1.65 is indicated by five stars (*****)) | 0.3 to 1 µM | ** (an EC1.5× between >1 μM and ≤3 μM is indicated by two stars (**))
11 | CCc1nc(C)cn2nc(-c3cc(=O)n4cc(N(C)CCNC)ccc4n3)cc12 [Compound 826, 2-(4-ethyl-6-methylpyrazolo[1,5-a]pyrazin-2-yl)-7-{methyl[2-(methylamino)ethyl]amino}-4H-pyrido[1,2-a]pyrimidin-4-one] |  | ***** (a fold increase >1.65 is indicated by five stars (*****)) | 0.1 to 0.3 µM | ** (an EC1.5× between >1 μM and ≤3 μM is indicated by two stars (**))
12 | Cc1cn2cc(-c3cc(=O)n4cc(N5CC[C@@H](N(C)C)C5)ccc4n3)cc(C)c2n1 [Compound 827, 7-[(3R)-3-(dimethylamino)pyrrolidin-1-yl]-2-(2,8-dimethylimidazo[1,2-a]pyridin-6-yl)-4H-pyrido[1,2-a]pyrimidin-4-one] |  | ***** (a fold increase >1.65 is indicated by five stars (*****)) | < 0.1 µM | *** (an EC1.5× between >0.3 μM and ≤1 μM is indicated by three stars (***))
13 | Cc1cn2cc(-c3cc(=O)n4cc(N5CC[C@H](N(C)C)C5)ccc4n3)cc(C)c2n1 [Compound 828, 7-[(3S)-3-(dimethylamino)pyrrolidin-1-yl]-2-(2,8-dimethylimidazo[1,2-a]pyridin-6-yl)-4H-pyrido[1,2-a]pyrimidin-4-one] |  | ***** (a fold increase >1.65 is indicated by five stars (*****)) | < 0.1 µM | **** (an EC1.5x≤0.3 μM is indicated by four stars (****))
14 | CCc1nc(C)cn2nc(-c3cc(=O)n4cc(OCCN(C)C)cc(C)c4n3)cc12 [Compound 829, 7-[2-(dimethylamino)ethoxy]-2-(4-ethyl-6-methylpyrazolo[1,5-a]pyrazin-2-yl)-9-methyl-4H-pyrido[1,2-a]pyrimidin-4-one] |  | ***** (a fold increase >1.65 is indicated by five stars (*****)) | 0.1 to 0.3 µM | ** (an EC1.5× between >1 μM and ≤3 μM is indicated by two stars (**))
15 | CCc1nc(C)cn2nc(-c3cc(=O)n4cc(OCCN(C)C)ccc4n3)cc12 [Compound 830, 7-[2-(dimethylamino)ethoxy]-2-(4-ethyl-6-methylpyrazolo[1,5-a]pyrazin-2-yl)-4H-pyrido[1,2-a]pyrimidin-4-one] |  | ***** (a fold increase >1.65 is indicated by five stars (*****)) | < 0.1 µM | *** (an EC1.5× between >0.3 μM and ≤1 μM is indicated by three stars (***))
16 | CCc1nc(C)cn2nc(-c3cc(=O)n4cc(OCC5CCNCC5)ccc4n3)cc12 [Compound 831, 2-(4-ethyl-6-methylpyrazolo[1,5-a]pyrazin-2-yl)-7-(piperidin-4-ylmethoxy)-4H-pyrido[1,2-a]pyrimidin-4-one] |  | **** (a fold increase between >1.5 and ≤1.65 is indicated by four stars (****)) | 0.1 to 0.3 µM | ** (an EC1.5× between >1 μM and ≤3 μM is indicated by two stars (**))
17 | CCc1nc(C)cn2nc(-c3cc(=O)n4cc(OCCN5CCCCC5)ccc4n3)cc12 [Compound 832, 2-(4-ethyl-6-methylpyrazolo[1,5-a]pyrazin-2-yl)-7-[2-(piperidin-1-yl)ethoxy]-4H-pyrido[1,2-a]pyrimidin-4-one] |  | ***** (a fold increase >1.65 is indicated by five stars (*****)) | 0.1 to 0.3 µM | *** (an EC1.5× between >0.3 μM and ≤1 μM is indicated by three stars (***))
18 | CCc1nc(C)cn2nc(-c3cc(=O)n4cc(OCCCN5CCOCC5)ccc4n3)cc12 [Compound 833, 2-(4-ethyl-6-methylpyrazolo[1,5-a]pyrazin-2-yl)-7-[3-(morpholin-4-yl)propoxy]-4H-pyrido[1,2-a]pyrimidin-4-one] |  | ***** (a fold increase >1.65 is indicated by five stars (*****)) | < 0.1 µM | ** (an EC1.5× between >1 μM and ≤3 μM is indicated by two stars (**))
19 | CCc1nc(C)cn2nc(-c3cc(=O)n4cc(OCCCN(C)C)ccc4n3)cc12 [Compound 834, 7-[3-(dimethylamino)propoxy]-2-(4-ethyl-6-methylpyrazolo[1,5-a]pyrazin-2-yl)-4H-pyrido[1,2-a]pyrimidin-4-one] |  | ***** (a fold increase >1.65 is indicated by five stars (*****)) | < 0.1 µM | **** (an EC1.5x≤0.3 μM is indicated by four stars (****))
20 | Cc1cn2nc(-c3cc(=O)n4cc(N5C[C@H]6CN(C)C[C@H]6C5)ccc4n3)cc2c(C)n1 [Compound 835, 2-(4,6-dimethylpyrazolo[1,5-a]pyrazin-2-yl)-7-[(3aR,6aS)-5-methylhexahydropyrrolo[3,4-c]pyrrol-2(1H)-yl]-4H-pyrido[1,2-a]pyrimidin-4-one] |  | ***** (a fold increase >1.65 is indicated by five stars (*****)) | < 0.1 µM | **** (an EC1.5x≤0.3 μM is indicated by four stars (****))
21 | COc1ccc(-c2cc(=O)n3cc(C4=CCNCC4)cnc3n2)cc1OC [Cpd 353, 2-(3,4-dimethoxyphenyl)-7-(1,2,3,6-tetrahydropyridin-4-yl)-4H-pyrimido[1,2-a]pyrimidin-4-one] |  | ** (a fold increase between >1.2 and ≤1.35 is indicated by two stars (**)) | 0.1 to 0.3 µM | 
